The values that follow are results of earlier work, collected in patent publication US20080302375A1 (priority 2003, published 2008).

SMILES strings stand for the structures.

The conditions of the data set: upon the smoking of a cigarette.

As for `CN1CCCC1c1cccnc1` (stereo not shown) [nicotine, 3-(1-methyl-2-pyrrolidinyl)-pyridine], the “time for nicotine to reach the brain after inhalation” value is “ten”.
